# In patent publication US7514257B2, “Zinc finger transcription factor differentiation proteins” (ToolGen, Inc., priority 2001, dated 2009):
# Where “and” joins values, the source holds several entries; their conditions need not be identical. Equal entries are not always repeated.
# Tests used:
# [1] = system: CMV-SEAP reporter; assay: CMV-SEAP reporter in 293F cells; assay type: cell-based, human; conditions: for CMV-SEAP, average: Vector (HANLS) = 1
# Method: (§1) Three days after transfection, medium was transferred to the new tubes and heated for 30 minutes at 65° C. to inactivate the endogenous alkaline phosphatase. 25 μl of medium was mixed with the same volume of 2×SEAP assay buffer (2 M Diethanolamine (pH 9.8) 10 ml, 1 M MgCl2 10 μl, 1 M homoarginine 200 μl, pNitro phenyl phosphate 44.52 mg). Absorbance at 405 nm was measured after the indicated incubation times at 37° C.
# (§2) To investigate this point, an extensive screening had been carried out using the SEAP reporter under the control of CMV promoter (CMV-SEAP) in 293F cells. Two ZFPs, K44—11_D01 and K44—11_G12, that increase activity of the SEAP protein were isolated. These two ZFPs were further tested using two other reporter plasmids, SV40-SEAP and the luciferase reporter under the control of CMV promoter (CMV-Luc). […] Thus, K44—11_G12 may be used increase the production of proteins generally in cells, e.g., eukaryotic cells.
# [2] = system: CMV-Luc reporter; assay: CMV-Luc reporter in 293F cells; assay type: cell-based, human; conditions: for CMV-Luc, average: Vector (HANLS) = 1
# Method: For the luciferase assay, 5 ng of both CMV-luciferase and pRL-SV40 plasmid were co-transfected with 50 ng of ZFP coding plasmids to 293 cells seeded in wells of a 96 well plate. After 3 days of incubation, cells were harvested and the luciferase assay was done by a Dual Luciferase reporter assay system (Promega) as recommended by the manufacturer.
# as §2
# [3] = system: SV40-SEAP reporter; assay: SV40-SEAP reporter in 293F cells; assay type: cell-based, human; conditions: for SV40-SEAP, average: Vector (HANLS) = 1
# Method: as §1
# as §2, with “(CMV-Luc). […].” for “(CMV-Luc).”
# [4] = system: C2C12 myoblasts; assay: ALP staining for transdifferentiation of C2C12 myoblasts to osteoblasts; assay type: cell-based, mouse; conditions: absence of BMP-2, seven days after transfection
# From the text: We screened for chimeric zinc finger proteins that induce transdifferentiation of C2C12 myoblasts to osteoblasts in the absence of BMP-2. We transiently transfected a nucleic acid library encoding chimeric zinc finger proteins into C2C12 cells and screened for cells that undergo transdifferentiation in the absence of BMP-2. Seven days after transfection, the transformed cells were stained for alkaline phosphatase (ALP), a marker for osteoblasts (Katagiri, T. et al., (1994) J. Cell. Biol. 127:1755).
# For these experiments, the mouse myoblast cell line, C2C12, was maintained in Dulbecco's Modified Eagle's Medium (DMEM) with 4.5 g/L glucose, 10% FBS, and antibiotics, at 37° C., in a humidified atmosphere containing 95% air and 5% CO2. Cells were seeded at 1.0·10^4 cells per 96-well culture plates. […] Twenty-four hours after transfection, the growth medium was replaced with DMEM containing 2% FBS, and the cells were cultured for an additional six days.
# To examine the differentiation of C2C12 cells to osteoblasts, ALP staining was performed as described in Katagiri, T. et al., (1994) J. Cell.
# [5] = system: 293 cells; assay: Cell growth of transfected 293 cells (cell count confirming MTT assay); assay type: cell-based, human; conditions: for relative cell number, average: three days after transfection, relative to parental vector
# Method: MTT assay is used to measure cell growth. Tetrazolium MTT reduced by metabolically active cells […] color indicates the number of viable cells. MTT assay was done using a MTT assay kit (Trevigen). The MTT assay was done at three days after transfection. Briefly, 10 μl of MTT solution was added directly to the culture medium and incubated for two hours in a CO2 incubator. Then, 100 μl of detergent solution from the MTT assay kit was added and incubated in the dark for two hours before measurement of absorbance at 570 nm was measured using a Power-Wave 340× (Bio-Tek Instrument).
# To count cell numbers, 293 cells were seeded at 1.5·10^4 cells/well in a 24 well plate one day before transfection. Three days after transfection with 200 ng of ZFP-coding nucleic acid or control vector plasmids, cells were washed with PBS once and suspended in 30 ul of TE (10 mM Tris 1 mM EDTA, pH 8.0) buffer and counted by hematocytometery.
# To confirm the MTT assay, the cell numbers were counted after transfection of K_D10 and K_F02 in 293 cells. The result was compared to the cell number of the well transfected with the parental vector, converted to relative percentages and shown in Table 13. […] The P values for K_D10 and K_F02 are 0.001 and 0.01, respectively. For sequence information, see FIGS. 18 and 19.
# [6] = system: SV40-SEAP reporter (pSEAP2-control); assay: SEAP assay, SV40-SEAP reporter in 293 cells; assay type: cell-based, human
# Method: Human embryonic kidney 293 cells were cultured with 100 μl of DMEM with 10% of FBS in a humidified atmosphere containing 95% air and 5% CO2 and seeded in wells of a 96 well plates 1 day ahead of transfection. The plasmids were isolated from individual colonies of each library separately and transfected into 293 cells LIPOFECTAMINE PLUS™ (Invitrogen) as recommended by the manufacturer. For MTT assay, 50 ng of plasmids containing zinc finger protein gene fused to the functional domains were transfected into cells cultured at 5·10^3 cells/well. For the SEAP assay, 10 ng of pSEAP2-control (Clontech) plasmid was co-transfected with 50 ng of plasmids containing zinc finger protein gene fused to the functional domains into cells cultured at 1·10^4 cells/well. The transfected cells were incubated at 37° C. for three days before assays.
# as §1
# We tested whether library nucleic acids could alter expression of a heterologous nucleic acid. SEAP (secretory alkaline phosphatase) was used as a reporter protein to test whether a ZFP can affect amount of foreign protein produced intracellularly.
# [7] = system: mouse neuroblastoma Neuro2a cells; assay: Neurite formation in Neuro2A cells; assay type: cell-based
# Method: Mouse neuroblastoma Neuro2a cells were maintained in MEM-a media with 10% FBS and antibiotics at 37° C., in a humidified atmosphere containing 95% air and 5% CO2. Cells were seeded at 8.0·10^3 cells per 96-well culture plate and then were transfected using LIPOFECTAMINE PLUS™ reagent (Invitrogen,CA) according to the manufacturer's protocol, with 50 ng of ZFP, together with 20 ng of LacZ reporter plasmid. In vitro differentiation was carried out with or without retinoic acid (RA) (10 μM) respectively, and G418 (1 mg/ml) was treated 24 hours after transfection to reduce the number of untransfected cells. Cells were then cultured for 96 hours and then fixed, stained for β-galactosidase activity, and photographed. Among β-galactosidase-positive cells, cells were regarded as differentiated if the length of neurite extension was at least two times the diameter of the cell body.
# To screen for ZFP-TFs that can induce neuronal differentiation, Neuro2A cells were transiently transfected with library plasmids and a reporter plasmid that includes the LacZ gene. LacZ expression was used to visualize the morphology of transfected cells. Because the differentiating cells grow slower than non-differentiating cells and the latter will dominate the cell population, we treated the cell culture with G418 24 hr after transfection to reduce the number of untransfected cells. After five days, cells were fixed and LacZ-stained. We then characterized the cells by their morphological characteristics. In particular, we identified cells with increased neurite length and thickness.
# [8] = system: yeast strain YPH499a; assay: Ketoconazole resistance of yeast transformants; assay type: cell-based, Saccharomyces cerevisiae; conditions: 10^7 cells plated on synthetic media
# Method: To check the fungistatic response of the tester strain YPH499a to ketoconazole, 10^7 cells of the YPH499a strain were plated onto synthetic media containing different concentrations of the drug.
# 1×10^7 yeast cells containing plasmids from the 3-finger and 4-finger libraries were cultivated in synthetic liquid medium with 2% galactose for 3 hours at 30° C. to induce zinc finger protein expression and then were plated onto synthetic galactose agar plates containing 35 μM ketoconazole (ICN Biomedicals). After fours days of incubation at 30° C., about 120 clones formed colonies on galactose media containing 35 μM ketoconazole. These ketoconazole resistant yeast colonies were picked and streaked on fresh synthetic galactose agar plates containing 35 μM ketoconazole. 23 clones were randomly selected from the 120 resistant clones. For each of these 23 clones, the resistant phenotype was verified by plasmid rescue. […]
# In one experiment, 5×10^4 cells from each transformant were serially diluted (10^−1, 10^−2, and 10^−3 fold) and spotted on galactose or glucose media supplemented without or with 35 μM ketoconazole. Growth of the cells was monitored after four days at 30° C. and compared to controls on the same plate. […]
# [9] = system: transcripts of human embryonic kidney 293 cells; assay: Transcript profiling of 293 cells expressing F121_p65; assay type: cell-based
# Method: DNA microarrays containing 7458 human EST clones were obtained from Genomictree (Korea). FlpTRex-293 cells stably expressing ZFP-TFs were grown with (+Dox) or without Dox) 1 μg/ml Doxycycline for 48 hours. Total RNA was prepared from each sample. RNA from the −Dox sample was used as a reference (Cy3), and +Dox as the experimental sample (Cy5). Microarray analysis was performed according to the manufacturer's protocols. Spots with sum of median less than 500 were colored red and not analyzed.
# The zinc finger protein F121_p65 was expressed in human embryonic kidney 293 cells. […] F121_p65 increases transcription of insulin-like growth factor 2, among other genes.
compound,measurement,setting,value
K44_11_G12: ZFP QSHV-VSTR-RDNQ-QTHR1 with kid repression domain (SEQ ID NO:16),increase of SEAP activity compared to parental plasmid (vector),[1],approximately 3 fold
same,"CMV-SEAP, average",[1],2.82
same,activation of CMV-luciferase,[2],2-3 fold
same,"CMV-Luc, average",[2],2.75
same,activation of SV40-SEAP,[3],2-3 fold
same,"SV40-SEAP, average",[3],2.14
Osteo1-p65: four-finger ZFP RDKR-QTHR1-VSTR-RDKR with p65 activation domain (SEQ ID NO:4),cells with strong ALP staining,[4],about 30%
K_D10: ZFP QSHV-WSNR-WSNR-RDNQ with kid repression domain (SEQ ID NO:10),inhibition of cell growth compared to parental vector,[5],approximately 3 fold
same,"relative cell number, average",[5],27.4%
P_B08: ZFP QSNR1-DSNR-DSNR with p65 activation domain (SEQ ID NO:8),Absorbance (405 nm),"[6]; SEAP reporter activity, three days after transfection",2.40
same,"SV40-SEAP reporter, average",[6]; Vector (HANLS) = 1,16.51
same,increase of SEAP activity compared to parental plasmid,[6]; retest,approximately 16 fold
K_F02: ZFP DSAR2-RDKR-RDER1-QTHR1 with kid repression domain (SEQ ID NO:12),activation of cell growth compared to the control,[5],2.7 fold
same,"relative cell number, average",[5],279.3%
"CC1=C(/C=C/C(C)=C/C=C/C(C)=C/C(=O)O)C(C)(C)CCC1 [RA, retinoic acid, reference compound]",Percentage of neurite bearing cells,[7]; RA 10 uM,14.93 ± 7.69%
"CC(=O)N1CCN(c2ccc(OCC3COC(Cn4ccnc4)(c4ccc(Cl)cc4Cl)O3)cc2)CC1 (stereo not shown) [ketoconazole, Ketoconazole]",ketoconazole concentration that inhibited growth of YPH499a cells,[8],35 µM
K44_11_D01: ZFP QSHV-QSNI-QTHR1-CSNR1 with kid repression domain (SEQ ID NO:14),increase of SEAP activity compared to parental plasmid (vector),[1],approximately 3 fold
same,"CMV-SEAP, average",[1],3.49
same,activation of CMV-Luciferase (in words),[2],not the CMV-Luciferase
same,"CMV-Luc, average",[2],0.87
same,activation of SV40-SEAP (in words),[3],showed activation of SV40-SEAP
same,"SV40-SEAP, average",[3],3.66
F121_p65: ZFP QSHT-RSHR-RDHT-p65 (SEQ ID NO:20),Norm ratio of medians (ROM),"[9]; FK506-binding protein 8 (38 kD), ID N95418",8.66
same,Norm ratio of medians (ROM),"[9]; Fn14 for type I transmenmbrane protein, ID AI221536",5.06
same,Norm ratio of medians (ROM),"[9]; brain-specific protein p25 alpha, ID AA133959",5.71
same,Norm ratio of medians (ROM),"[9]; cadherin 13, H-cadherin (heart), ID R41787",7.34 and 5.90
same,Norm ratio of medians (ROM),"[9]; cellular retinoic acid-binding protein 2, ID AA598508",10.30
same,Norm ratio of medians (ROM),"[9]; cyclin D1 (PRAD1: parathyroid adenomatosis, ID AA487486)",5.27
same,Norm ratio of medians (ROM),"[9]; cysteine-rich protein 2, ID AA485427",6.71
same,Norm ratio of medians (ROM),"[9]; growth arrest and DNA-damage-inducible, ID AA404666",5.55
same,Norm ratio of medians (ROM),"[9]; insulin-like growth factor 2, ID H59614",17.71 and 16.88
same,Norm ratio of medians (ROM),"[9]; insulin-like growth factor 2, ID N54596",14.40
same,Norm ratio of medians (ROM),"[9]; jun B proto-oncogene, ID N94468",11.61
same,Norm ratio of medians (ROM),"[9]; ketohexokinase (fructokinase), ID T61256",5.28
same,Norm ratio of medians (ROM),"[9]; lymphocyte antigen 6 complex, locus H, ID AI929550",5.50
same,Norm ratio of medians (ROM),"[9]; nuclear factor of activated T-cells, ID AA679278",9.64
same,Norm ratio of medians (ROM),"[9]; protein phosphatase 2, regulatory subunit, ID R59165",9.89 and 8.60
same,Norm ratio of medians (ROM),"[9]; protein tyrosine phosphatase, receptor, ID R45941",16.45
same,Norm ratio of medians (ROM),"[9]; putative gene product, ID H09111",12.35
same,Norm ratio of medians (ROM),"[9]; tumor necrosis factor (ligand) superfamily, ID AI347622",6.15
same,Norm ratio of medians (ROM),"[9]; unnamed (—), ID AA045731",5.27
same,Norm ratio of medians (ROM),"[9]; zinc finger protein homologous to Zfp-36, ID R38383",6.46
Neuro1-p65: chimeric ZFP QSNR1-QSNK-CSNR1 with p65 activation domain (SEQ ID NO:2),Percentage of neurite bearing cells,[7]; No RA,42.39 ± 5.56%
same,Percentage of neurite bearing cells,[7]; RA 10 uM,41.59 ± 6.46%
same,neuritogenesis,[7]; cells treated with 10 μM RA,marked acceleration of neuritogenesis
same,neuritogenesis / differentiation (length and thickness of neurites),[7]; without RA,most prominent effect on differentiation
